Measurements as given in US20250115943A1, “SYSTEM AND METHOD FOR ANTIMICROBIAL SUSCEPTIBILITY TESTING” (priority 2023, published 2025).
Values after ≈ are worked out from the molar mass of the structure shown. Like-named read-outs stand apart in the source and are kept apart here.

What was measured:
E. coli ATCC 25922 [1] = assay: CytoSPAR BLAST antibiotic susceptibility test; assay type: cell-based; details: for S, I, R: susceptible, intermediate, resistant category; for MIC: Escherichia coli, 5 × 10^5 CFU/mL
From the text: (§1) The disclosed technology, which is referred to as the CytoSPAR BLAST (Bacteria Labeling Antibiotic Susceptibility Test) system, is used to quantitatively assess bacterial minimal inhibitory concentration of antibiotics for in vitro susceptibility testing. Used as an aid in diagnosis for clinicians in determining potential treatment options for patients suspected of having a microbial infection, BLAST is intended to determine susceptibility of microorganisms to the listed antibiotics (or other antimicrobials) according to manufacturer's standards. The system is intended for use with clinical isolates from liquid culture and colonies grown on agar (solid medium) or directly from urine samples. Certain implementations of BLAST determine antibiotic susceptibility for a wide range of bacteria obtained from various types of patient samples, including samples from individuals suffering from urinary tract infections. The disclosed technology includes a high-throughput assay that directly detects bacterial susceptibility to a library of frequently used antibiotics and covers both Gram-negative and Gram-positive bacteria.
(§2) The test incorporates a non-canonical amino acid (ncAA) into newly produced proteins. The incorporated ncAA includes a reactive group which allows a specific modification and detection of the living bacteria. The assay involves bacterial incorporation of the ncAA, a chemical reaction between a reactive group and a fluorophore-tagged ligand, and detection of the newly fluorescent-tagged bacteria using a fluorescent plate reader or functionally similar device. The ncAA is added to bacterial growth media and is incorporated into newly synthesized bacterial proteins. The reactive groups on the ncAA are not naturally found in bacteria and act as a specific reactive group for bacteria undergoing active protein synthesis. […] The entire process is performed in a microtiter filter plate for high-throughput scale-up. Alternatively, a normal 96-well plate can also be used in which case centrifugation is used to wash the plate instead of filtration.
(§3) In an example embodiment, bacterial samples are first diluted and incubated in acclimatization media. After treatment with one or more antimicrobials, the ncAA is added and is taken up by living bacteria during protein biosynthesis in a process called labeling. […] The Click-Chemistry reaction between the alkyne group of the ncAA and the azide group of the fluorophore-tagged ligand requires the presence of copper in the reduced state-copper (I). In other implementations, the functional groups of the click chemistry reaction can be changed so that the ncAA has the azide group and the dye has the alkyne group. […] Other reducing agents may be used in the BLAST assay, for example, aldoses (sugars) including glyceraldehyde, glucose, and ribose to replace sodium ascorbate. Likewise, alternate chelators may be used (e.g., histidine in place of BTTAA). In some implementations, metal-free click chemistry reactions are performed without using copper.
(§4) Using the BLAST system, tests can be performed on isolates or direct urine samples. Isolates may be from urine, blood, or other body fluids. Isolated bacteria may be either Gram-positive or Gram-negative. In an example implementation, living bacterial samples in acclimatization media (Buffer A) are distributed in a microtiter filter plate, wherein certain predetermined wells include antibiotics of interest at different concentrations. These antibiotics are arrayed with increasing concentrations in adjacent wells so that the bacterial response can be measured against each specific concentration. The response is measured quantitatively, and a value that corresponds to the ability of the bacteria to metabolize and grow is measured.

P. aeruginosa ATCC 27853 = assay: CytoSPAR BLAST antibiotic susceptibility test; assay type: cell-based; details: susceptible, intermediate, resistant category
From the text: as §1, §2, §3, §4

S. aureus ATCC 29213 [2] = assay: CytoSPAR BLAST antibiotic susceptibility test; assay type: cell-based; details: for S, I, R: susceptible, intermediate, resistant category; for MIC: Staphylococcus aureus
From the text: as §1, §2, §3, §4

E. coli strain #14 (CDC) [3] = assay: microbe, parasite or virus in culture; details: Escherichia coli, read-out: BLAST MIC
From the text: (§5) The disclosed technology, which is referred to as the CytoSPAR BLAST (Bacteria Labeling Antibiotic Susceptibility Test) system, is used to quantitatively assess bacterial minimal inhibitory concentration of antibiotics for in vitro susceptibility testing. Used as an aid in diagnosis for clinicians in determining potential treatment options for patients suspected of having a microbial infection, BLAST is intended to determine susceptibility of microorganisms to the listed antibiotics (or other antimicrobials) according to manufacturer's standards. The system is intended for use with clinical isolates from liquid culture and colonies grown on agar (solid medium) or directly from urine samples. […]
(§6) The test incorporates a non-canonical amino acid (ncAA) into newly produced proteins. […] The assay involves bacterial incorporation of the ncAA, a chemical reaction between a reactive group and a fluorophore-tagged ligand, and detection of the newly fluorescent-tagged bacteria using a fluorescent plate reader or functionally similar device. […]
(§7) Using the BLAST system, tests can be performed on isolates or direct urine samples. […] These antibiotics are arrayed with increasing concentrations in adjacent wells so that the bacterial response can be measured against each specific concentration. […]

[4] = test system: E. coli strain #551 (CDC); assay: microbe, parasite or virus in culture; details: Escherichia coli, read-out: BLAST MIC, E. coli resistant strain (CDC 551); […]10^8 CFUs/mL; cut-off 0.7; FIG. 11C
From the text: as §5, §6, §7

E. coli = details: cited from earlier work
E. coli ATCC 25922 [5] = details: E. coli strain #25922 (ATCC); strain designation, not a BLAST readout; cited from earlier work
[6] = test system: E. coli strain #551 (CDC); details: strain designation, not a BLAST readout; cited from earlier work
E. coli strain #14 (CDC) [7] = details: strain designation, not a BLAST readout; cited from earlier work
S. saprophyticus = details: cited from earlier work
[8] = test system: E. coli, S. saprophyticus and S. aureus; details: for E. coli, S. saprophyticus and S. aureus as reported by the FDA and CLSI (Table 5); cited from earlier work
E. coli LSI 770 [9] = assay: CytoSPAR BLAST antibiotic susceptibility test; assay type: cell-based; details: for MIC: Escherichia coli
From the text: as §1, §2, §3, §4

K. pneumoniae LSI 4552 [10] = assay: CytoSPAR BLAST antibiotic susceptibility test; assay type: cell-based
From the text: as §1, §2, §3, §4

K. pneumoniae LSI CT1045 [11] = assay: CytoSPAR BLAST antibiotic susceptibility test; assay type: cell-based
From the text: as §1, §2, §3, §4

P. mirabilis LSI 4698 [12] = assay: CytoSPAR BLAST antibiotic susceptibility test; assay type: cell-based
From the text: as §1, §2, §3, §4

P. mirabilis LSI 4933 [13] = assay: CytoSPAR BLAST antibiotic susceptibility test; assay type: cell-based
From the text: as §1, §2, §3, §4

E. coli LSI 770 [14] = assay: reference broth microdilution (rBMD); assay type: cell-based; details: Escherichia coli, LSI770
Protocol: (§8) Following optimization of the BLAST assay, two other tests were performed in which 12 antibiotics (covering different classes) and 8 bacterial strains (Gram-positive and Gram-negative) were assayed using the same method as described above. Different bacterial strains were tested against different antibiotics and for each pair tested, the BLAST MIC value was compared to the CLSI QC range where available, or to the reference broth microdilution (rBMD) MIC which was determined in parallel with the BLAST assay following the CLSI protocols (see references [9]).
(§9) The inoculated urine cultures were incubated overnight at 35+2° C. Each urine culture was centrifuged, and the sediment used to prepare the BLAST inoculum of 5.0×10^5 CFU/mL to start the assay as described in the protocols section. […] The spiked urine samples were tested in parallel with isolates and the resultant BLAST MIC values were compared. In addition to the BLAST test, all the samples were also tested using the reference broth microdilution (rBMD) method and the MIC values were compared.

S. aureus ATCC 29213 [15] = assay: reference broth microdilution (rBMD); assay type: cell-based
Protocol: as §8, §9

K. pneumoniae LSI 4552 [16] = assay: reference broth microdilution (rBMD); assay type: cell-based; details: Klebsiella pneumoniae, LSI4552
Protocol: as §8

K. pneumoniae LSI CT1045 [17] = assay: reference broth microdilution (rBMD); assay type: cell-based; details: Klebsiella pneumoniae, LSICT1045
Protocol: as §8

P. mirabilis LSI 4933 [18] = assay: reference broth microdilution (rBMD); assay type: cell-based; details: Proteus mirabilis, LSI4933
Protocol: as §8

P. mirabilis LSI 4698 [19] = assay: reference broth microdilution (rBMD); assay type: cell-based; details: Proteus mirabilis, LSI4698
[20] = susceptible, intermediate, resistant category

SMILES: O=C1CN(/N=C/c2ccc([N+](=O)[O-])o2)C(=O)N1 [Nitrofurantoin, nitrofurantoin]
- S, I, R (E. coli ATCC 25922 [1]): Susceptible
- S, I, R (P. aeruginosa ATCC 27853): Resistant
- S, I, R (S. aureus ATCC 29213 [2]; S. aureus ATCC 29213): Susceptible
- MIC (S. aureus ATCC 29213 [2]; ATCC29213, S. aureus ATCC 29213, 5×10^5 CFUs/mL, FIG. 15, read-out: BLAST MIC): 4 µg/mL (≈ 16.8 µM)
- MIC (S. aureus ATCC 29213 [2]; ATCC29213, Table 6, S. aureus ATCC 29213, optimized BLAST, cutoff 0.8, read-out: MIC BLAST): 4 µg/mL (≈ 16.8 µM)
- MIC (E. coli strain #14 (CDC) [3]): 32 µg/mL (≈ 134 µM)
- MIC [4]: 32 µg/mL (≈ 134 µM)
- CLSI breakpoint I (E. coli; intermediate): 64 µg/mL
- FDA breakpoint I (E. coli; intermediate): 64 µg/mL
- CLSI breakpoint S (E. coli; susceptible): 32 µg/mL
- FDA breakpoint S (E. coli; susceptible): 32 µg/mL
- susceptibility of the strain as listed (E. coli ATCC 25922 [5]): Susceptible
- susceptibility of the strain as listed [6]: Resistant
- susceptibility of the strain as listed (E. coli strain #14 (CDC) [7]): Intermediate resistance
- CLSI breakpoint I (S. saprophyticus; intermediate): 64 µg/mL
- FDA breakpoint I (S. saprophyticus; intermediate): 64 µg/mL
- CLSI breakpoint S (S. saprophyticus; susceptible): 32 µg/mL
- FDA breakpoint S (S. saprophyticus; susceptible): 32 µg/mL
- CLSI QC range [8]: 4 to 16 µg/mL

SMILES: Cc1nnc(SCC2=C(C(=O)O)N3C(=O)[C@@H](NC(=O)Cn4cnnn4)[C@H]3SC2)s1 [Cefazolin, cefazolin]
- BLAST MIC (E. coli ATCC 25922 [1]; 5×10^6 CFUs/mL, cutoff 0.8, FIGS. 16-18): 2.0 µg/mL
- MIC (E. coli ATCC 25922 [1]; ATCC25922, Table 8, isolates, read-out: MIC BLAST Isolates): 4.44 µg/mL (≈ 9.77 µM)
- MIC (E. coli ATCC 25922 [1]; ATCC25922, Table 8, spiked urine sample, read-out: MIC BLAST Spiked Urine): 1.11 µg/mL (≈ 2.44 µM)
- S, I, R (E. coli ATCC 25922 [1]): Susceptible
- S, I, R (E. coli LSI 770 [9]; E. coli LSI 770, susceptible, intermediate, resistant category): Resistant
- MIC (E. coli LSI 770 [9]; LSI770, read-out: MIC BLAST Isolates): > 142 µg/mL
- MIC (E. coli LSI 770 [9]; LSI770, read-out: MIC BLAST Spiked Urine): > 142 µg/mL
- MIC (E. coli LSI 770 [9]; LSI770, Table 7, E. coli LSI 770, read-out: MIC BLAST): > 142 µg/mL
- MIC (K. pneumoniae LSI 4552 [10]; Klebsiella pneumoniae, LSI4552, Table 7): 2 µg/mL (≈ 4.4 µM)
- S, I, R (K. pneumoniae LSI 4552 [10]; [20]): Susceptible
- MIC (K. pneumoniae LSI CT1045 [11]; Klebsiella pneumoniae, LSICT1045, Table 7): > 142 µg/mL
- S, I, R (K. pneumoniae LSI CT1045 [11]; [20]): Resistant
- MIC (P. mirabilis LSI 4698 [12]; Proteus mirabilis, LSI4698, Table 7): 4.4 µg/mL (≈ 9.68 µM)
- S, I, R (P. mirabilis LSI 4698 [12]; [20]): Susceptible
- MIC (P. mirabilis LSI 4933 [13]; Proteus mirabilis, LSI4933, Table 7): 4.4 µg/mL (≈ 9.68 µM)
- S, I, R (P. mirabilis LSI 4933 [13]; [20]): Susceptible
- BLAST MIC (S. aureus ATCC 29213 [2]; S. aureus ATCC 29213, FIG. 19): < 0.125 µg/mL
- S, I, R (S. aureus ATCC 29213 [2]; S. aureus ATCC 29213): Susceptible
- MIC (S. aureus ATCC 29213 [2]; ATCC29213, S. aureus ATCC 29213, 5×10^6 CFUs/mL, cutoff 0.8, FIGS. 19-21, read-out: BLAST MIC): < 0.125 µg/mL
- MIC (S. aureus ATCC 29213 [2]; ATCC29213, Table 7, S. aureus ATCC 29213, read-out: MIC BLAST): 0.14 µg/mL (≈ 0.308 µM)
- MIC (S. aureus ATCC 29213 [2]; ATCC29213, Table 8, S. aureus ATCC 29213, isolates, 5 × 10^5 CFU/mL, read-out: MIC BLAST Isolates): 0.14 µg/mL (≈ 0.308 µM)
- MIC (S. aureus ATCC 29213 [2]; ATCC29213, Table 8, S. aureus ATCC 29213, spiked urine sample, 5 × 10^5 CFU/mL, read-out: MIC BLAST Spiked Urine): 0.28 µg/mL (≈ 0.616 µM)
- MIC (S. aureus ATCC 29213 [2]; ATCC29213, read-out: MIC BLAST, Table 6, S. aureus ATCC 29213, optimized BLAST, cutoff 0.8): 0.125 µg/mL (≈ 0.275 µM)
- MIC (E. coli LSI 770 [14]): > 256 µg/mL
- MIC (S. aureus ATCC 29213 [15]; Staphylococcus aureus, ATCC29213): 0.5 µg/mL (≈ 1.1 µM)
- MIC rBMD (S. aureus ATCC 29213 [15]; Table 8, S. aureus ATCC 29213, geometric mean MIC rounded to nearest 2-fold dilution, n = 3): 0.5 µg/mL (≈ 1.1 µM)
- MIC (K. pneumoniae LSI 4552 [16]): 8 µg/mL (≈ 17.6 µM)
- MIC (K. pneumoniae LSI CT1045 [17]): > 256 µg/mL
- MIC (P. mirabilis LSI 4933 [18]): 8 µg/mL (≈ 17.6 µM)
- MIC (P. mirabilis LSI 4698 [19]): 16 µg/mL (≈ 35.2 µM)
